# Data as given in paper PMC8217170, “Phase Ib dose-escalation study of the hypoxia-modifier Myo-inositol trispyrophosphate in patients with hepatopancreatobiliary tumors” (Nature Communications, 2021).
# Experiment: Phase Ib dose escalation: safety and tolerability (CTCAE v4.03), MTD
# Assay type: in vivo, human
# Set-up: key to Hypercalcemia, CTCAE-Grade / Hypophosphatemia, CTCAE-Grade / Cholestasis, CTCAE-Grade / Nausea, CTCAE-Grade / Hypertension, CTCAE-Grade / Upper respiratory tract infection, CTCAE-Grade / Hyponatremia, CTCAE-Grade / Hypomagnesemia, CTCAE-Grade / Ascites & death due to rapid progression of malignancy, CTCAE-Grade / Hypokalemia, CTCAE-Grade / Pyrexia, CTCAE-Grade / Hyperphosphatemia, CTCAE-Grade / AV Block 1°, CTCAE-Grade / Palpations, CTCAE-Grade: 1 is the mildest form of the specific symptom; 5 is death
# Conditions: for Hypercalcemia, CTCAE-Grade: relationship to IMP: Definitively
# Source text: This first-in-patient investigator-initiated phase Ib dose-escalation study followed a 3 + 3 dose-escalation scheme with a planned maximal inclusion of 48 participants allocated to eight cohorts of increasing doses. Outcomes were safety, tolerability, pharmacokinetics, and preliminary efficacy of ITPP with participants in this exploratory, prospective, open-label and unblinded, unrandomized, single-center investigation being enrolled at the University Hospital Zurich (USZ), Switzerland. Written informed consent was obtained of all participants before study inclusion after a time of consideration of at least 24 h. Written consent included the reporting and publication of individual, anonymized patient data. The study adhered to the principles of the Declaration of Helsinki, current good clinical practice guidelines and all ethical regulations. The study protocol was approved by the responsible independent ethics committee of Zurich (KEK-ZH-Nr. 2014-0374) and the national regulatory authority Swissmedic (2015DR1009) and is provided in the Supplementary Note 1. The study setup was published before inclusion start[55] and the trial first registered at ClinicalTrials.gov (NCT02528526) on 11/11/2014. After 6 sequential reviews requiring minor editorial changes, final registration at ClinicalTrials.gov was obtained on the 08/18/2015. The first patient was included in the study 04/13/2015, with treatment started on the 04/27/2015. 4 patients were included in the trial before final registration at ClinicalTrials.gov (04/13/2015–07/20/2015). The last patient was included on the 06/12/2018, treatment started on the 06/18/2018 and the last treatment administered on 07/06/2018. Data cut-off for the study was the 12/31/2018. The manuscript was written in compliance with ICMJE guidelines.
# Primary objectives were (i) assessment of the safety and tolerability of increasing doses of ITPP, and (ii) establishment of the MTD (primary endpoint) according to the dose escalation schema. The primary outcome was measured by collection of adverse effects information according to Common Terminology Criteria for Adverse Events (CTCAE, US National Cancer Institute, version 4.03). Safety objectives and outcomes were identical with the primary endpoint.
# The study drug (brand name: OXY111A) was intravenously administered in 9 infusions, each lasting 8 h, over 3 weeks in an outpatient setting at the Phase 1 unit of the USZ Clinical Trials Center. Due to its anionic properties, ITPP acts a potent chelator of calcium. Therefore, administration with CaCl2 (Baxter) at a 1:0.75 molar ratio has been determined to prevent hypocalcaemia. Respective doses were calculated based on body surface area (DuBois/DuBois formula). Cohort 1 started at weekly doses of 5600 mg/m^2 weekly, equal to the maximal weekly dose tested in healthy volunteers (unpublished data from Normoxys®). Dose escalation was performed according to the predefined scheme (Fig. 1a, Supplementary Note 1: page 6) up to a maximum weekly dose of 43,700 mg/m^2. During infusion days, participants had continuous monitoring of vital signs and daily 12-electrode electrocardiograms. Electrolytes measurements and venous blood gas analyses were performed three-hourly, while complete blood count, coagulation and routine kidney/liver parameters were assessed twice daily.
# Severity of encountered AE was assessed following the CTCAE guidelines. Serious AE were defined as events being life-threatening, necessitating hospitalization, resulting in death or birth defects. DLT was defined as any AE ≥ grade 3 and sTET as any grade 2 AE considered to be definitely, probably or possibly related to ITPP. […] MTD was defined as the dose preceding the level at which 1 patient experienced a DLT or ≥3 patients experienced a sTET (Supplementary Note 1: page 6). The window for DLT/sTET/MTD assessment was from first dose of ITPP until first dose of chemotherapy or 10d following the last ITPP infusion. […]
# [1] = cohort 4, AE, relationship to IMP: Possibly
# [2] = cohort 4, AE, relationship to IMP: Unrelated
# [3] = cohort 4, SAE, relationship to IMP: Unrelated
# [4] = cohort 5, AE, relationship to IMP: Unlikely
# [5] = cohort 7, AE, relationship to IMP: Unlikely
# [6] = cohort 7, AE, relationship to IMP: Unrelated
# [7] = cohort 8, AE, relationship to IMP: Possibly
structure (smiles),measurement,setting,value
"O=P1(O)OC2C3OP(=O)(O)OP(=O)(O)OC3C3OP(=O)(O)OP(=O)(O)OC3C2OP(=O)(O)O1 (stereo not drawn) [ITPP, Myo-inositol trispyrophosphate]","Icterus due to malignant obstruction (AE, not ITPP-related)","cohort 4, 7000 mg/m^2",0
same,"Lower gastrointestinal bleeding (AE, not ITPP-related)","cohort 4, 7000 mg/m^2",0
same,"Nausea & vomiting due to malignant infiltration of stomach (AE, not ITPP-related)","cohort 4, 7000 mg/m^2",0
same,"Neutropenia (AE, not ITPP-related)","cohort 4, 7000 mg/m^2",0
same,"Palpitations (AE, not ITPP-related)","cohort 4, 7000 mg/m^2",0
same,"Pyrexia (AE, not ITPP-related)","cohort 4, 7000 mg/m^2",0
same,"Hypercalcemia, CTCAE-Grade","cohort 4, AE",1
same,"Hypertension, CTCAE-Grade",[1],1
same,"Hypophosphatemia, CTCAE-Grade",[1],1
same,"Ascites, CTCAE-Grade",[2],3
same,"Nausea, CTCAE-Grade",[2],1
same,"Upper respiratory tract infection, CTCAE-Grade",[2],1
same,"Acute kidney injury grad 3, CTCAE-Grade",[3],3
same,"Hospitalisation due to fatigue/decreased state of health, CTCAE-Grade",[3],3
same,"AV Block 1° (AE, not ITPP-related)","cohort 5, 8750 mg/m^2",0
same,"Acute kidney injury grade 3 (AE, not ITPP-related)","cohort 5, 8750 mg/m^2",0
same,"Ascites due to oncological progress (AE, not ITPP-related)","cohort 5, 8750 mg/m^2",0
same,"C. difficile enteritis (AE, not ITPP-related)","cohort 5, 8750 mg/m^2",0
same,"Cholestasis (AE, not ITPP-related)","cohort 5, 8750 mg/m^2",0
same,"Fatigue (AE, not ITPP-related)","cohort 5, 8750 mg/m^2",0
same,Hyperphosphatemia (TET),"cohort 5, 8750 mg/m^2",0
same,Hypertension (TET),"cohort 5, 8750 mg/m^2",0
same,Hypomagnesemia (TET),"cohort 5, 8750 mg/m^2",0
same,Hypophosphatemia (TET),"cohort 5, 8750 mg/m^2",0
same,"Lower gastrointestinal bleeding (AE, not ITPP-related)","cohort 5, 8750 mg/m^2",0
same,"Nausea & vomiting due to malignant infiltration of stomach (AE, not ITPP-related)","cohort 5, 8750 mg/m^2",0
same,"Nausea (AE, not ITPP-related)","cohort 5, 8750 mg/m^2",0
same,"Neutropenia (AE, not ITPP-related)","cohort 5, 8750 mg/m^2",0
same,"Palpitations (AE, not ITPP-related)","cohort 5, 8750 mg/m^2",0
same,"Pyrexia (AE, not ITPP-related)","cohort 5, 8750 mg/m^2",0
same,"Upper respiratory tract infection (AE, not ITPP-related)","cohort 5, 8750 mg/m^2",0
same,"Hypercalcemia, CTCAE-Grade","cohort 5, AE",1
same,"Hypokalemia, CTCAE-Grade",[4],2
same,"Hyponatremia, CTCAE-Grade",[4],1
same,"Icterus/Stenosis D. choledochus, CTCAE-Grade",[4],3
same,"AV Block 1° (AE, not ITPP-related)","cohort 6, 10,500 mg/m^2",0
same,"Acute kidney injury grade 3 (AE, not ITPP-related)","cohort 6, 10,500 mg/m^2",0
same,"Ascites due to oncological progress (AE, not ITPP-related)","cohort 6, 10,500 mg/m^2",0
same,"C. difficile enteritis (AE, not ITPP-related)","cohort 6, 10,500 mg/m^2",0
same,"Cholestasis (AE, not ITPP-related)","cohort 6, 10,500 mg/m^2",0
same,"Fatigue (AE, not ITPP-related)","cohort 6, 10,500 mg/m^2",0
same,Hyperphosphatemia (TET),"cohort 6, 10,500 mg/m^2",0
same,Hypertension (TET),"cohort 6, 10,500 mg/m^2",0
same,"Hypokalemia (AE, not ITPP-related)","cohort 6, 10,500 mg/m^2",0
same,"Hyponatremia (AE, not ITPP-related)","cohort 6, 10,500 mg/m^2",0
same,Hypophosphatemia (TET),"cohort 6, 10,500 mg/m^2",0
same,"Icterus due to malignant obstruction (AE, not ITPP-related)","cohort 6, 10,500 mg/m^2",0
same,"Lower gastrointestinal bleeding (AE, not ITPP-related)","cohort 6, 10,500 mg/m^2",0
same,"Nausea & vomiting due to malignant infiltration of stomach (AE, not ITPP-related)","cohort 6, 10,500 mg/m^2",0
same,"Nausea (AE, not ITPP-related)","cohort 6, 10,500 mg/m^2",0
same,"Palpitations (AE, not ITPP-related)","cohort 6, 10,500 mg/m^2",0
same,"Pyrexia (AE, not ITPP-related)","cohort 6, 10,500 mg/m^2",0
same,"Upper respiratory tract infection (AE, not ITPP-related)","cohort 6, 10,500 mg/m^2",0
same,"Hypercalcemia, CTCAE-Grade","cohort 6, AE",1
same,"Hypomagnesemia, CTCAE-Grade","cohort 6, AE, relationship to IMP: Possibly",1
same,"Neutropenia, CTCAE-Grade","cohort 6, AE, relationship to IMP: Unlikely",3
same,"AV Block 1° (AE, not ITPP-related)","cohort 7, 12,390 mg/m^2",0
same,"Acute kidney injury grade 3 (AE, not ITPP-related)","cohort 7, 12,390 mg/m^2",0
same,"C. difficile enteritis (AE, not ITPP-related)","cohort 7, 12,390 mg/m^2",0
same,"Cholestasis (AE, not ITPP-related)","cohort 7, 12,390 mg/m^2",0
same,"Fatigue (AE, not ITPP-related)","cohort 7, 12,390 mg/m^2",0
same,Hyperphosphatemia (TET),"cohort 7, 12,390 mg/m^2",0
same,Hypertension (TET),"cohort 7, 12,390 mg/m^2",0
same,Hypomagnesemia (TET),"cohort 7, 12,390 mg/m^2",0
same,Hypophosphatemia (TET),"cohort 7, 12,390 mg/m^2",0
same,"Icterus due to malignant obstruction (AE, not ITPP-related)","cohort 7, 12,390 mg/m^2",0
same,"Lower gastrointestinal bleeding (AE, not ITPP-related)","cohort 7, 12,390 mg/m^2",0
same,"Nausea & vomiting due to malignant infiltration of stomach (AE, not ITPP-related)","cohort 7, 12,390 mg/m^2",0
same,"Nausea (AE, not ITPP-related)","cohort 7, 12,390 mg/m^2",0
same,"Neutropenia (AE, not ITPP-related)","cohort 7, 12,390 mg/m^2",0
same,"Palpitations (AE, not ITPP-related)","cohort 7, 12,390 mg/m^2",0
same,"Hypercalcemia, CTCAE-Grade","cohort 7, AE",1
same,"Hypokalemia, CTCAE-Grade",[5],1
same,"Upper respiratory tract infection, CTCAE-Grade",[5],2
same,"Ascites, CTCAE-Grade",[6],3
same,"Pyrexia, CTCAE-Grade",[6],1
same,"Acute kidney injury grade 3 (AE, not ITPP-related)","cohort 8, 14,500 mg/m^2",0
same,"Ascites due to oncological progress (AE, not ITPP-related)","cohort 8, 14,500 mg/m^2",0
same,"C. difficile enteritis (AE, not ITPP-related)","cohort 8, 14,500 mg/m^2",0
same,"Cholestasis (AE, not ITPP-related)","cohort 8, 14,500 mg/m^2",0
same,"Fatigue (AE, not ITPP-related)","cohort 8, 14,500 mg/m^2",0
same,"Hypokalemia (AE, not ITPP-related)","cohort 8, 14,500 mg/m^2",0
same,"Hyponatremia (AE, not ITPP-related)","cohort 8, 14,500 mg/m^2",0
same,Hypophosphatemia (TET),"cohort 8, 14,500 mg/m^2",0
same,"Icterus due to malignant obstruction (AE, not ITPP-related)","cohort 8, 14,500 mg/m^2",0
same,"Lower gastrointestinal bleeding (AE, not ITPP-related)","cohort 8, 14,500 mg/m^2",0
same,"Nausea & vomiting due to malignant infiltration of stomach (AE, not ITPP-related)","cohort 8, 14,500 mg/m^2",0
same,"Nausea (AE, not ITPP-related)","cohort 8, 14,500 mg/m^2",0
same,"Neutropenia (AE, not ITPP-related)","cohort 8, 14,500 mg/m^2",0
same,"Palpitations (AE, not ITPP-related)","cohort 8, 14,500 mg/m^2",0
same,"Pyrexia (AE, not ITPP-related)","cohort 8, 14,500 mg/m^2",0
same,"Upper respiratory tract infection (AE, not ITPP-related)","cohort 8, 14,500 mg/m^2",0
same,"Hyperphosphatemia, CTCAE-Grade",[7],1
same,"Hypomagnesemia, CTCAE-Grade",[7],1
same,"Hypertension, CTCAE-Grade","cohort 8, AE, relationship to IMP: Probably",1
same,"AV Block 1°, CTCAE-Grade","cohort 8, AE, relationship to IMP: Unrelated",1
same,sTET or DLT,cohorts 1–7,No significant treatment-emergent toxicity (sTET) or dose limiting toxicity (DLT) was encountered
same,Total number of adverse events (AE),during ITPP administration and 10-day follow-up,56
same,Increase in diastolic blood pressure,"grade I, three older male patients with pre-existing hypertension",< 20 mmHg
same,"Hypercalcemia of free ionized calcium, CTCAE grade (first sTET)","patient Nr. 27, cohort 8, single dose 14’500 mg/m^2",grade II
same,"Hypercalcemia of free ionized calcium, CTCAE grade (second sTET and DLT)","patient Nr. 28, cohort 8, single dose 14’500 mg/m^2",grade II and IV
same,Maximum tolerated dose (MTD),"single dose, intravenous over eight hours, nine infusions over three weeks","12,390 mg/m^2"
